Results taken from paper PMC4844649, “A first-in-Asian phase 1 study to evaluate safety, pharmacokinetics and clinical activity of VS-6063, a focal adhesion kinase (FAK) inhibitor in Japanese patients with advanced solid tumors” (Cancer Chemotherapy and Pharmacology, 2016).
Where “and” joins values, the source holds several entries; their conditions need not be identical. Identical values can stand only once. Entries after “also recorded” stand apart in the source; their conditions may differ.

Key:
[1] = phase 1 safety and tolerability (CTCAE v4.03) in Japanese patients with advanced solid tumors; type: in vivo; details: for Grade 3 AE of unconjugated hyperbilirubinemia: 200 mg BID cohort; for dose-limiting toxicities (DLTs): 200–600 mg BID
Experimental: This was a phase 1, open-label, dose-escalation study to evaluate the safety and PK of VS-6063, a FAK inhibitor in Japanese subjects with advanced solid tumor malignancies. This study was expected to enroll up to 18 evaluable subjects with non-hematologic malignancies if 6 subjects were assigned at each of the 3 planned dose levels of 200, 400, and 600 mg BID. VS-6063 was administered orally, BID, in continuous 21 day cycles. Subject enrollment proceeded according to a standard 3 + 3 design. In the absence of DLT, each subject received oral VS-6063 (BID) for a minimum of 21 days of continuous daily dosing (1 cycle) and could continue to receive additional cycles of study treatment until disease progression was documented or other treatment discontinuation criteria were met. All patients within a cohort were required to complete 1 cycle (21 days) of dosing with <1 of 3 or <2 of 6 subjects experiencing a DLT prior to escalation to the next dose level in a new cohort. Three subjects were to be treated at each dose level until the first instance of DLT, after which up to 6 subjects were to be treated at that dose level. […] The MTD was defined as the highest dose level studied at which <1 subject out of 3 or <2 subjects out of 6 experienced a DLT. The RP2D was to be determined in discussion among the sponsor, medical monitor, and investigators. Observations related to PK and any VS-6063-related toxicities were included in the rationale supporting the RP2D. Safety and tolerability was assessed by the incidence and severity of AEs as determined by National Cancer Institute (NCI) Common Terminology Criteria for Adverse Events (CTCAE v4.03). The antitumor activity of study treatment was assessed according to the Response Evaluation Criteria in Solid Tumors (RECIST v1.1).

UGT1A1 = details: in vitro; no reference given; cited from earlier work
[2] = 200 mg BID, N = 3, listed as defactinib
[3] = 400 mg BID, N = 3, listed as defactinib
[4] = 600 mg BID, N = 3, listed as defactinib
[5] = Total, N = 9, listed as defactinib

CNC(=O)c1ccc(Nc2ncc(C(F)(F)F)c(NCc3nccnc3N(C)S(C)(=O)=O)n2)cc1 [VS-6063, defactinib]
Grade 3 AE of unconjugated hyperbilirubinemia [1]: Only one subject | Grade 3 AE of unconjugated hyperbilirubinemia ([1]; listed as defactinib): Only one patient | Anemia, treatment-related adverse event ([1]; 200 mg BID, N = 3): 0 n (%) | Aspartate aminotransferase increased, treatment-related adverse event ([1]; 200 mg BID, N = 3): 1 (33.3) n (%) | Blood alkaline phosphatase increased, treatment-related adverse event ([1]; 200 mg BID, N = 3): 2 (66.7) n (%) | Blood bilirubin increased, treatment-related adverse event ([1]; 200 mg BID, N = 3): 3 (100.0) n (%) | Decreased appetite, treatment-related adverse event ([1]; 200 mg BID, N = 3): 2 (66.7) n (%) | Diarrhea, treatment-related adverse event ([1]; 200 mg BID, N = 3): 0 n (%) | Fatigue, treatment-related adverse event ([1]; 200 mg BID, N = 3): 2 n (%) and 2 (66.7) n (%) | Headache, treatment-related adverse event ([1]; 200 mg BID, N = 3): 0 n (%) | Nausea, treatment-related adverse event ([1]; 200 mg BID, N = 3): 1 (33.3) n (%) | Blood bilirubin increased, treatment-related adverse event [1, 2]: 3 n (%) | Nausea, treatment-related adverse event [1, 2]: 1 n (%) | Anemia, treatment-related adverse event ([1]; 400 mg BID, N = 3): 0 n (%) | Aspartate aminotransferase increased, treatment-related adverse event ([1]; 400 mg BID, N = 3): 0 n (%) | Blood alkaline phosphatase increased, treatment-related adverse event ([1]; 400 mg BID, N = 3): 0 n (%) | Blood bilirubin increased, treatment-related adverse event ([1]; 400 mg BID, N = 3): 2 (66.7) n (%) | Decreased appetite, treatment-related adverse event ([1]; 400 mg BID, N = 3): 1 (33.3) n (%) | Diarrhea, treatment-related adverse event ([1]; 400 mg BID, N = 3): 1 (33.3) n (%) | Fatigue, treatment-related adverse event ([1]; 400 mg BID, N = 3): 1 n (%) and 1 (33.3) n (%) | Headache, treatment-related adverse event ([1]; 400 mg BID, N = 3): 1 (33.3) n (%) | Nausea, treatment-related adverse event ([1]; 400 mg BID, N = 3): 0 n (%) | Blood bilirubin increased, treatment-related adverse event [1, 3]: 2 n (%) | Diarrhea, treatment-related adverse event [1, 3]: 1 n (%) | Anemia, treatment-related adverse event ([1]; 600 mg BID, N = 3): 2 (66.7) n (%) | Aspartate aminotransferase increased, treatment-related adverse event ([1]; 600 mg BID, N = 3): 1 (33.3) n (%) | Blood alkaline phosphatase increased, treatment-related adverse event ([1]; 600 mg BID, N = 3): 0 n (%) | Blood bilirubin increased, treatment-related adverse event ([1]; 600 mg BID, N = 3): 2 (66.7) n (%) | Decreased appetite, treatment-related adverse event ([1]; 600 mg BID, N = 3): 1 (33.3) n (%) | Diarrhea, treatment-related adverse event ([1]; 600 mg BID, N = 3): 2 (66.7) n (%) | Fatigue, treatment-related adverse event ([1]; 600 mg BID, N = 3): 3 n (%) and 3 (100.0) n (%) | Headache, treatment-related adverse event ([1]; 600 mg BID, N = 3): 1 (33.3) n (%) | Nausea, treatment-related adverse event ([1]; 600 mg BID, N = 3): 1 (33.3) n (%) | Blood bilirubin increased, treatment-related adverse event [1, 4]: 2 n (%) | Diarrhea, treatment-related adverse event [1, 4]: 2 n (%) | Nausea, treatment-related adverse event [1, 4]: 1 n (%) | recommended Phase 2 dose (RP2D) ([1]; Japanese subjects): 400 mg BID | Anemia, treatment-related adverse event ([1]; Total, N = 9): 2 (22.2) n (%) | Aspartate aminotransferase increased, treatment-related adverse event ([1]; Total, N = 9): 2 (22.2) n (%) | Blood alkaline phosphatase increased, treatment-related adverse event ([1]; Total, N = 9): 2 (22.2) n (%) | Blood bilirubin increased, treatment-related adverse event ([1]; Total, N = 9): 7 (77.8) n (%) | Decreased appetite, treatment-related adverse event ([1]; Total, N = 9): 4 (44.4) n (%) | Diarrhea, treatment-related adverse event ([1]; Total, N = 9): 3 (33.3) n (%) | Fatigue, treatment-related adverse event ([1]; Total, N = 9): 6 (66.7) n (%) | Headache, treatment-related adverse event ([1]; Total, N = 9): 2 (22.2) n (%) | Nausea, treatment-related adverse event ([1]; Total, N = 9): 2 (22.2) n (%) | Blood bilirubin increased, treatment-related adverse event [1, 5]: 7 n (%) | Decreased appetite, treatment-related adverse event [1, 5]: 4 n (%) | Diarrhea, treatment-related adverse event [1, 5]: 3 n (%) | Fatigue, treatment-related adverse event [1, 5]: 6 n (%) | Nausea, treatment-related adverse event [1, 5]: 2 n (%) | AEs leading to death, SAEs, AEs leading to early study withdrawal ([1]; all dose cohorts): no AEs leading to death or SAEs, and no AEs leading to early study withdrawal | concurrent increases in ALT or AST above ULN in subjects with hyperbilirubinemia ([1]; all dose cohorts): no increase in ALT or AST values associated with the increases in bilirubin | proteinuria ([1]; all dose cohorts): no subject developed any grade of proteinuria | concurrent increases in ALT or AST above ULN in subjects with hyperbilirubinemia ([1]; all dose cohorts, listed as defactinib): None of these subjects had concurrent increases in ALT or AST above ULN | tolerability ([1]; all dose levels investigated): well tolerated at all dose levels investigated; also recorded: acceptable safety profile | ECG parameters and QTc interval ([1]; any dose cohort): No clinically meaningful changes in any ECG parameter were observed for any dose cohort and no subject had a QTc interval ≥500 ms or QTc increase from baseline >30 ms | dose-limiting toxicities (DLTs) ([1]; any dose cohort): No dose-limiting toxicities were observed at any dose level | dose-limiting toxicities (DLTs) ([1]; any dose cohort, listed as defactinib): No DLTs were reported in any dose cohort | subjects requiring dose modification for increased bilirubin ([1]; of the 9 subjects): 1 subjects | time to resolution of Grade 3 hyperbilirubinemia after onset ([1]; one patient, 200 mg cohort, following interruption of study drug): 6 days | onset of hyperbilirubinemia after initiating treatment ([1]; typical onset, asymptomatic): ≤ 2 weeks | UGT1A1 inhibition (UGT1A1): UGT1A1 inhibitors in vitro
